According to ChEMBL document CHEMBL4321811, “Targeting the γ-Aminobutyric Acid Type B (GABAB) Receptor Complex: Development of Inhibitors Targeting the K+ Channel Tetramerization Domain (KCTD) Containing Proteins/GABAB Receptor Protein-Protein Interaction” (J Med Chem, 2019):
pEC50: −log10 of the molar value. Activity calls are given as the source filed them. No cut-off for these calls is given here. Non-standard residues stand in square brackets, D forms with d. Residues, ends and D or L forms follow the SMILES beside them. ξ: configuration not given here. ξS = NC(CO)C(=O)O

How the values were obtained:
[1] = target: T1, BTB/POZ domain-containing protein KCTD12 (Homo sapiens, UniProt Q96CX2); experiment: Binding affinity to recombinant human 6X His-tagged KCTD12 T1 domain (27 to 131 residues) expressed in Escherichia coli BL21 DE3 cells preincubated for 1 hr followed by probing with HRP-conjugated 6X-His tag antibody for 0.5 hrs by SPOT peptide microarray analysis; details: for pEC50: read-out: EC50
[2] = target: T1, BTB/POZ domain-containing protein KCTD12; experiment: Displacement of TAMRA-AAG-SLQLPILHHAYLPSIGGV from recombinant human 6X His-tagged KCTD12 T1 domain (27 to 131 residues) expressed in Escherichia coli BL21 DE3 cells by fluorescence polarization assay
[3] = target: BTB/POZ domain-containing protein KCTD8 (Homo sapiens) (UniProt Q6ZWB6); experiment: Displacement of TAMRA-AAG-SLQLPILHHAYLPSIGGV from recombinant human 6X His-tagged KCTD8 T1 domain (37 to 148 residues) expressed in Escherichia coli BL21 DE3 cells by fluorescence polarization assay
[4] = target: BTB/POZ domain-containing protein KCTD16 (Homo sapiens) (UniProt Q68DU8); experiment: Displacement of TAMRA-AAG-SLQLPILHHAYLPSIGGV from recombinant 6X His tagged KCTD16 T1 domain (unknown origin) by fluorescence polarization assay
[5] = target: BTB/POZ domain-containing protein KCTD12 (Mus musculus) (UniProt Q6WVG3); experiment: Binding affinity to KCTD12 in wild type mouse brain membrane using resin-bound immobilized compound incubated for overnight by pull-down experiment based immunoblot analysis; assay type: cell membranes
[6] = target: BTB/POZ domain-containing protein KCTD16 (Mus musculus) (UniProt Q5DTY9); experiment: Binding affinity to KCTD16 in wild type mouse brain membrane using resin-bound immobilized compound incubated for overnight by pull-down experiment based immunoblot analysis; assay type: cell membranes
[7] = target: BTB/POZ domain-containing protein KCTD8 (Homo sapiens) (UniProt Q6ZWB6); experiment: Binding affinity to Myc-tagged full length KCTD8 (unknown origin) expressed in HEK293 cells using resin-bound immobilized compound by pull down analysis; assay type: cell-based
[8] = target: BTB/POZ domain-containing protein KCTD16 (Mus musculus) (UniProt Q5DTY9); experiment: Binding affinity to KCTD16 in wild type mouse brain cytoplasmic fraction using resin -bound immobilized compound incubated for overnight by pull-down experiment based immunoblot analysis; assay type: subcellular
[9] = target: BTB/POZ domain-containing protein KCTD16 (Homo sapiens) (UniProt Q68DU8); experiment: Binding affinity to Myc-tagged full length KCTD16 (unknown origin) expressed in HEK293 cells using resin-bound immobilized compound by pull down analysis; assay type: cell-based
[10] = target: BTB/POZ domain-containing protein KCTD16 (Homo sapiens) (UniProt Q68DU8); experiment: Binding affinity to recombinant 6X His-tagged KCTD16 T1 domain (unknown origin) assessed as increase in thermal stability of the protein at protein:compound ratio of 1:5 by Thermofluor analysis
[11] = target: BTB/POZ domain-containing protein KCTD8 (Mus musculus) (UniProt Q50H33); experiment: Binding affinity to KCTD8 in wild type mouse brain cytoplasmic fraction using resin-bound immobilized compound incubated for overnight by pull-down experiment based immunoblot analysis; assay type: subcellular
[12] = target: BTB/POZ domain-containing protein KCTD16 (Homo sapiens) (UniProt Q68DU8); experiment: Binding affinity to recombinant 6X His-tagged KCTD16 T1 domain (unknown origin) assessed as high-order oligomer formation by measuring oligomer molecular weight at protein:compound concentration ratio of 1:2 by SEC-MALS analysis (reference value: […] +/- 2.5 kDa)
[13] = target: BTB/POZ domain-containing protein KCTD12 (Mus musculus) (UniProt Q6WVG3); experiment: Binding affinity to KCTD12 in wild type mouse brain cytoplasmic fraction using resin-bound immobilized compound incubated for overnight by pull-down experiment based immunoblot analysis; assay type: subcellular
[14] = target: BTB/POZ domain-containing protein KCTD8 (Mus musculus) (UniProt Q50H33); experiment: Binding affinity to KCTD8 in wild type mouse brain membrane using resin-bound immobilized compound incubated for overnight by pull-down experiment based immunoblot analysis; assay type: cell membranes

BTB/POZ domain-containing protein KCTD8 (Mus musculus), sequence (Q50H33 whole entry, the tested form may be a part): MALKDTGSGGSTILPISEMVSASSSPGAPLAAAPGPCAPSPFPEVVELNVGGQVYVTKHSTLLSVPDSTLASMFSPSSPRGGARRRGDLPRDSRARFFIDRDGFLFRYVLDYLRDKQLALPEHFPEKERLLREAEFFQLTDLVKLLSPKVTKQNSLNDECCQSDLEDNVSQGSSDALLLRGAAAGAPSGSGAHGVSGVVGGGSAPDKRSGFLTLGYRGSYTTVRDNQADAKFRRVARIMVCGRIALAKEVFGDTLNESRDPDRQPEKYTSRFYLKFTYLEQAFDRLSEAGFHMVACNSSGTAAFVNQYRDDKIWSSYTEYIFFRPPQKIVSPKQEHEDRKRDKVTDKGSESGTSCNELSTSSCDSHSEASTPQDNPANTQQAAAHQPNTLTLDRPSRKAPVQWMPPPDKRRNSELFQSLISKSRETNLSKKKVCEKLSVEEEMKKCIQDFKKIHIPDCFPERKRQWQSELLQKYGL
T1 sequence (Q96CX2 whole entry, the tested form may be a part): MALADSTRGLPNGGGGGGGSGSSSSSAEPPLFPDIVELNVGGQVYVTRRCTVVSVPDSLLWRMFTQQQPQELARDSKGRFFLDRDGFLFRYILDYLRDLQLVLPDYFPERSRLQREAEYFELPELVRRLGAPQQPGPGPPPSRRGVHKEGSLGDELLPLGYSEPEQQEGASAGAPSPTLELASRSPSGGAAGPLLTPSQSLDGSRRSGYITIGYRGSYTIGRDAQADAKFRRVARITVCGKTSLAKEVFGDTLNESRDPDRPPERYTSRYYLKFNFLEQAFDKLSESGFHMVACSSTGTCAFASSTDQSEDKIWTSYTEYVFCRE
BTB/POZ domain-containing protein KCTD16 (Mus musculus), sequence (Q5DTY9 whole entry, the tested form may be a part): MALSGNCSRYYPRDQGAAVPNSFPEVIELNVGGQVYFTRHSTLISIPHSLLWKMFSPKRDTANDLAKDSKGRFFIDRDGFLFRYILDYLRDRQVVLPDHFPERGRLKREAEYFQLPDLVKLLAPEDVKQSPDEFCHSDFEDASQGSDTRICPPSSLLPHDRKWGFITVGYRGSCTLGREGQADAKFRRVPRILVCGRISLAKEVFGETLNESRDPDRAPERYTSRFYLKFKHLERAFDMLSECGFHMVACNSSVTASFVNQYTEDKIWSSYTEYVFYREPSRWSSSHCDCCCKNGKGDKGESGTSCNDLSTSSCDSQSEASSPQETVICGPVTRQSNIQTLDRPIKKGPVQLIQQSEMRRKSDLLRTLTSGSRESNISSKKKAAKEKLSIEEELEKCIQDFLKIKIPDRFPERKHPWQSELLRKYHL
BTB/POZ domain-containing protein KCTD16 (Homo sapiens), sequence (Q68DU8 whole entry, the tested form may be a part): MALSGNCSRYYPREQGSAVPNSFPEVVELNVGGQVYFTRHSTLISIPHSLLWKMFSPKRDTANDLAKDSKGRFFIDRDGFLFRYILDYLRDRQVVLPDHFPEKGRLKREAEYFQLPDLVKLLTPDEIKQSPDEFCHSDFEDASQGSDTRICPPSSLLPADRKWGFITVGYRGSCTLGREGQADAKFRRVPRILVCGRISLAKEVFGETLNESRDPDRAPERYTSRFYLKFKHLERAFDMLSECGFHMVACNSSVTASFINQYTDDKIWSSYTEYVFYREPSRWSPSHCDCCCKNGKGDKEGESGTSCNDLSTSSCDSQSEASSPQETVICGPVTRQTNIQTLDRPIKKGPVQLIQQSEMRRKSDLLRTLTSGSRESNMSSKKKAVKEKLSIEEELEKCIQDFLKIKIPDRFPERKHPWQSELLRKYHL
BTB/POZ domain-containing protein KCTD12 (Mus musculus), sequence (Q6WVG3 whole entry, the tested form may be a part): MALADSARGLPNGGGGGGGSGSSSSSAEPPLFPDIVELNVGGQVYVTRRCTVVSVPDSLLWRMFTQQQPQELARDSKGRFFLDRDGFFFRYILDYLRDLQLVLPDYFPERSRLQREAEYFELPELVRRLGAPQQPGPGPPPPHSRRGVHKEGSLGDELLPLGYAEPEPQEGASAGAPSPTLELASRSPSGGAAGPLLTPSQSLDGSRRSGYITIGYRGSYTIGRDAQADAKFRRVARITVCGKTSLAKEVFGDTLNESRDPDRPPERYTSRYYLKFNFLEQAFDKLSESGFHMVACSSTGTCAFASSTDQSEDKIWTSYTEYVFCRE
BTB/POZ domain-containing protein KCTD8 (Homo sapiens), sequence (Q6ZWB6 whole entry, the tested form may be a part): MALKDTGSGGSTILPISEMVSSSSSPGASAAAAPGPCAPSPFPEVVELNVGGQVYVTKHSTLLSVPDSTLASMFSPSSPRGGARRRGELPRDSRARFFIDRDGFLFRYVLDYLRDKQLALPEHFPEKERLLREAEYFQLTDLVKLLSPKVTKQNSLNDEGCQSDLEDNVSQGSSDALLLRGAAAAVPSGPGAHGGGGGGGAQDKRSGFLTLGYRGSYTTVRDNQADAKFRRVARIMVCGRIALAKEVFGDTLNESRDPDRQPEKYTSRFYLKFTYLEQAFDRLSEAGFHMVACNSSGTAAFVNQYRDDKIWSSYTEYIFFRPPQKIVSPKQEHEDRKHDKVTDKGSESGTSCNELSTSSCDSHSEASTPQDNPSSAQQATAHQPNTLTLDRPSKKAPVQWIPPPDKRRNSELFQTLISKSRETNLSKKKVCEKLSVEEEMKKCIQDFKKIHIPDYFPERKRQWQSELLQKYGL

Compound: H-AEKEERVSELRHQLQ-OH
- EC50 [1]: Not Active

Compound: H-SLQLPILHHAYLPSYHYY-OH
- pEC50 [1]: 6.68
- IC50 [2]: Nd(Insoluble)
- Ki [2]: Nd(Insoluble)

Compound: H-NNNEEEKSRLLEKEN-OH
- EC50 [1]: Not Active

Compound: H-QLPILHHAYLPSIGG-OH
- Activity [1]: Active

Compound: H-EAQDTMKTGSSTNNN-OH
- EC50 [1]: Not Active

Compound: H-ELEKIIAEKEERVSE-OH
- EC50 [1]: Not Active

Compound: H-EEKSRLLEKENRELE-OH
- EC50 [1]: Not Active

Compound: CC[C@H](C)[C@H](NC(=O)[C@H](CO)NC(=O)[C@@H]1CCCN1C(=O)[C@H](CC(C)C)NC(=O)[C@H](Cc1ccc(O)cc1)NC(=O)[C@H](C)NC(=O)[C@H](Cc1cnc[nH]1)NC(=O)[C@H](Cc1cnc[nH]1)NC(=O)[C@H](CC(C)C)NC(=O)[C@H](NC(=O)[C@@H]1CCCN1C(=O)[C@H](CC(C)C)NC(=O)[C@H](CCC(N)=O)NC(=O)[C@H](CC(C)C)NC(=O)[C@H](CO)NC(=O)[C@H](CC(C)C)NC(=O)[C@H](CCCNC(=N)N)NC(=O)[C@@H](N)CCCNC(=N)N)[C@@H](C)CC)C(=O)O
- Activity [3]: Active
- Activity [4]: Active

Compound: H-LEKENRELEKIIAEK-OH
- EC50 [1]: Not Active

Compound: H-EKIIAEKEERVSELR-OH
- EC50 [1]: Not Active

Compound: H-IIAEKEERVSELRHQ-OH
- EC50 [1]: Not Active

Compound: H-PRGPPEPPDRLSCDG-OH
- EC50 [1]: Not Active

Compound: H-SLQLPILHHAYLPSI-OH
- Activity [1]: Active

Compound: CC[C@H](C)[C@H](NC(=O)[C@H](CO)NC(=O)[C@@H]1CCCN1C(=O)[C@H](CC(C)C)NC(=O)[C@H](Cc1ccc(O)cc1)NC(=O)[C@H](C)NC(=O)[C@H](Cc1cnc[nH]1)NC(=O)[C@H](Cc1cnc[nH]1)NC(=O)[C@H](CC(C)C)NC(=O)[C@H](NC(=O)[C@@H]1CCCN1C(=O)[C@H](Cc1ccc(O)cc1)NC(=O)[C@H](CC(N)=O)NC(=O)[C@H](Cc1ccc(O)cc1)NC(=O)[C@H](N)Cc1ccc(O)cc1)[C@@H](C)CC)C(=O)NCC(=O)NCC(=O)N[C@H](C(=O)O)C(C)C
- Activity [5]: Active
- Activity [6]: Active
- Activity [7]: Active
- Activity [8]: Active
- Activity [9]: Active
- Activity [10]: Active
- Activity [11]: Active
- Activity [12]: 60.1 kDa
- Activity [13]: Active
- Activity [14]: Active

Compound: H-SLQLPIAHHAALPSIGGV-OH
- Activity [5]: inactive
- Activity [6]: inactive
- Activity [7]: inactive
- Activity [8]: inactive
- Activity [9]: inactive
- Activity [11]: inactive
- Activity [13]: inactive
- Activity [14]: inactive

Compound: H-NEEEKSRLLEKENRE-OH
- EC50 [1]: Not Active

Compound: H-LPILHHAYLPSIGGV-OH
- Activity [1]: Active

Compound: CC[C@H](C)[C@H](NC(=O)C(CO)NC(=O)[C@@H]1CCCN1C(=O)[C@H](CC(C)C)NC(=O)[C@H](C)NC(=O)[C@H](C)NC(=O)[C@H](Cc1cnc[nH]1)NC(=O)[C@H](Cc1cnc[nH]1)NC(=O)[C@H](CC(C)C)NC(=O)[C@@H](NC(=O)[C@@H]1CCCN1C(=O)[C@H](CC(C)C)NC(=O)[C@H](CCC(N)=O)NC(=O)[C@H](CC(C)C)NC(=O)[C@@H](N)CO)[C@@H](C)CC)C(=O)NCC(=O)NCC(=O)N[C@H](C(=O)O)C(C)C (some centres not stated) (H-SLQLPILHHAALP[ξS]IGGV-OH)
- EC50 [1]: Not Active
- IC50 [2]: Not Active
- Ki [2]: Not Active

Compound: H-GLPRGPPEPPDRLSC-OH
- EC50 [1]: Not Active

Compound: CC[C@H](C)[C@H](NC(=O)C(CO)NC(=O)[C@@H]1CCCN1C(=O)[C@H](CC(C)C)NC(=O)[C@H](Cc1ccccc1)NC(=O)[C@H](C)NC(=O)[C@H](Cc1cnc[nH]1)NC(=O)[C@H](Cc1cnc[nH]1)NC(=O)[C@H](CC(C)C)NC(=O)[C@@H](NC(=O)[C@@H]1CCCN1C(=O)[C@H](CC(C)C)NC(=O)[C@H](CCC(N)=O)NC(=O)[C@H](CC(C)C)NC(=O)[C@@H](N)CO)[C@@H](C)CC)C(=O)NCC(=O)NCC(=O)N[C@H](C(=O)O)C(C)C (some centres not stated) (H-SLQLPILHHAFLP[ξS]IGGV-OH)
- EC50 [1]: Not Active
- IC50 [2]: Not Active
- Ki [2]: Not Active

Compound: H-KTGSSTNNNEEEKSR-OH
- EC50 [1]: Not Active

Compound: H-TMKTGSSTNNNEEEK-OH
- EC50 [1]: Not Active

Compound: H-LQLPILHHAYLPSIG-OH
- Activity [1]: Active

Compound: H-KSRLLEKENRELEKI-OH
- EC50 [1]: Not Active

Compound: H-KENRELEKIIAEKEE-OH
- EC50 [1]: Not Active

Compound: H-STNNNEEEKSRLLEK-OH
- EC50 [1]: Not Active

Compound: H-SLQLPILHHAYLPSIGGV-OH
- Activity [5]: Active
- Activity [3]: Active
- Activity [6]: Active
- Activity [7]: Active
- Activity [4]: Active
- Activity [8]: Active
- Activity [9]: Active
- Activity [10]: Active
- Activity [11]: Active
- Activity [12]: 66.4 kDa
- Activity [13]: Active
- Activity [14]: Active

Compound: CC(C)C[C@H](NC(=O)CNC(=O)CNC(=O)[C@H](CO)NC(=O)[C@@H]1CCCN1C(=O)[C@H](CCC(=O)O)NC(=O)[C@@H]1CCCN1C(=O)[C@@H]1CCCN1C(=O)[C@H](NC(=O)[C@@H]1CCCN1C(=O)[C@@H]1CCCN1C(=O)[C@H](Cc1cnc[nH]1)NC(=O)[C@H](CCCNC(=N)N)NC(=O)[C@@H](N)CCCNC(=N)N)[C@@H](C)O)C(=O)N1CCC[C@H]1C(=O)O
- EC50 [1]: Not Active

Compound: H-GPPEPPDRLSCDGSR-OH
- EC50 [1]: Not Active

Compound: H-PTPPEPSGGLPRGPP-OH
- EC50 [1]: Not Active

Compound: H-RLLEKENRELEKIIA-OH
- EC50 [1]: Not Active

Compound: H-GSSTNNNEEEKSRLL-OH
- EC50 [1]: Not Active

Compound: H-HPPTPPEPSGGLPRG-OH
- EC50 [1]: Not Active

Compound: H-PPEPSGGLPRGPPEP-OH
- EC50 [1]: Not Active

Compound: H-KEERVSELRHQLQSR-OH
- EC50 [1]: Not Active

Compound: H-EPSGGLPRGPPEPPD-OH
- EC50 [1]: Not Active

Compound: H-QDTMKTGSSTNNNEE-OH
- EC50 [1]: Not Active

Compound: H-SLQLPILHHAYLPYYHYY-OH
- pEC50 [1]: 5.87
- IC50 [2]: Nd(Insoluble)
- Ki [2]: Nd(Insoluble)

Compound: CC(C)C[C@H](NC(=O)[C@H](CCCNC(=N)N)NC(=O)[C@H](CC(=O)O)NC(=O)[C@@H]1CCCN1C(=O)[C@@H]1CCCN1C(=O)[C@H](CCC(=O)O)NC(=O)[C@@H]1CCCN1)C(=O)N[C@@H](CO)C(=O)N[C@@H](CS)C(=O)N[C@@H](CC(=O)O)C(=O)NCC(=O)N[C@@H](CO)C(=O)N[C@@H](CCCNC(=N)N)C(=O)N[C@H](C(=O)N[C@@H](Cc1cnc[nH]1)C(=O)O)C(C)C
- EC50 [1]: Not Active

Compound: H-SGGLPRGPPEPPDRL-OH
- EC50 [1]: Not Active

Compound: H-NRELEKIIAEKEERV-OH
- EC50 [1]: Not Active
